Source: patent publication US12540131B2 (Merck Sharp & Dohme LLC, priority 2019, dated 2026)

Target: GST tagged truncated human mutant G2019S LRRK2 (Homo sapiens (Human), UniProt Q5S007, G2019S)
Assay: LRRK2 Km ATP LanthaScreen Assay
Format: biochemical
Conditions: G2019S LRRK2, 134 μM ATP (Km ATP), mean values
How it was run: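 Enzyme (GST-tagged, truncated) was preincubated with compound for 15 min at RT in 50 mM Tris pH 8.5, 10 mM MgCl2, 0.01% Brij-35, 1 mM EGTA, 2 mM DTT and 0.05 mM orthovanadate. Fluorescein-LRRKtide and 134 μM ATP (Km) were then added for 90 min. EDTA and Tb-anti-pERM antibody stopped the reaction; the TR-FRET 520/495 ratio gave 4-parameter IC50s, reported as mean pIC50.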

GST tagged truncated human mutant G2019S LRRK2, sequence (Q5S007 970-2527 G2019S): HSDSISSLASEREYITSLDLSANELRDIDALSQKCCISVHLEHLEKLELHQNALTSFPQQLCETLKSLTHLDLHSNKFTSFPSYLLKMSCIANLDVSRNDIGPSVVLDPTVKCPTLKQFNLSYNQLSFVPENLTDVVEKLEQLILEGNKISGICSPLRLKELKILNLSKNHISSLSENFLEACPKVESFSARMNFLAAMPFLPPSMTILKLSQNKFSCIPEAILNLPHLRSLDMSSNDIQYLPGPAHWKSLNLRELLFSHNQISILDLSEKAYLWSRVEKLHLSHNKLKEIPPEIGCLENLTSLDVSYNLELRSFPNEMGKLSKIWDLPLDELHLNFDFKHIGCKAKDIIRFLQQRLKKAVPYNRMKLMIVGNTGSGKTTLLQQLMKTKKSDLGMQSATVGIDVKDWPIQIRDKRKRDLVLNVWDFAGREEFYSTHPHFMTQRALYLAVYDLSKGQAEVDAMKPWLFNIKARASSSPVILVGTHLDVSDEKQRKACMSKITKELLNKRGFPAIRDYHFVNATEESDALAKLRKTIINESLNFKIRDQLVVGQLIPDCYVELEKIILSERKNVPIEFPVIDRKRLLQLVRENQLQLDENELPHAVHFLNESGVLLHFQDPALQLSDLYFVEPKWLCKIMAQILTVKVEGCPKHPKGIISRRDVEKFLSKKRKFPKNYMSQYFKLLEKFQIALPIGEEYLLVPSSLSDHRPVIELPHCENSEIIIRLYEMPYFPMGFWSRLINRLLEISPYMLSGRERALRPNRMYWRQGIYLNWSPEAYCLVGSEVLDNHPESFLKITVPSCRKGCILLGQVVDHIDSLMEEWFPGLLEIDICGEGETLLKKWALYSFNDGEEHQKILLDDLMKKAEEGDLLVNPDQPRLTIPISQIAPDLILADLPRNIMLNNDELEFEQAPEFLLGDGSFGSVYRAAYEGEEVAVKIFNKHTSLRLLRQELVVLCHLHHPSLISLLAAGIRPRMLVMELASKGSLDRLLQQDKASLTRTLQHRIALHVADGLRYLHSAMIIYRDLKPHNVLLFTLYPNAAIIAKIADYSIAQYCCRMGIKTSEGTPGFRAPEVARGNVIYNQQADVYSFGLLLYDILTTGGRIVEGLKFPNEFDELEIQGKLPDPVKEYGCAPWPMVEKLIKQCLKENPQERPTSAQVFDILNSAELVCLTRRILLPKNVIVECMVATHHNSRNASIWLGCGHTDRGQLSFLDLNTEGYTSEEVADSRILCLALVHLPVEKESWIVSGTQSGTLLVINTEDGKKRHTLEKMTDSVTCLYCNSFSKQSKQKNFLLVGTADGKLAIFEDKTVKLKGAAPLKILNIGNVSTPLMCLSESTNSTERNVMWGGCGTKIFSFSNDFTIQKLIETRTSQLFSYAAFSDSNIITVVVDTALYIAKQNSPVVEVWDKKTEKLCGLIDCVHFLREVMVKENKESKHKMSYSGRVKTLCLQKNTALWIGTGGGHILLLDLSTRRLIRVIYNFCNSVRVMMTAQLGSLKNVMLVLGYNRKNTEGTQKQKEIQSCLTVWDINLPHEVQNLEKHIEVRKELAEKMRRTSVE

SMILES	LRRK2 pIC50
Cc1cc2cnc(Nc3cnn(C4CC4)c3Cl)nc2cc1C1CCN([C@@H]2COC[C@@H]2O)[C@@H](C)C1 (single isomer, unassigned) [Ex-4.243, (3S,4S)(2S) or (3R,4R)(2S) 4-[4-{2-[(5-chloro-1-cyclopropyl-1H-pyrazol-4-yl)amino]-6-methylquinazolin-7-yl}-2-methylpiperidin-1-yl]oxolan-3-ol]	>9.20
CO[C@H]1COC[C@H]1N1CC[C@@H](c2cc3nc(Nc4cnn(C5CC5(F)F)c4Cl)ncc3cc2C)[C@H](F)C1 (single isomer, unassigned) [Ex-4.244, (R)(3S,4S)(3S,4S) or (R)(3S,4S)(3R,4R) or (R)(3R,4R)(3S,4S) or (R)(3R,4R)(3R,4R) or (S)(3S,4S)(3S,4S) or (S)(3S,4S)(3R,4R) or (S)(3R,4R)(3S,4S) or (S)(3R,4R)(3R,4R) N-[5-chloro-1-(2,2-difluorocyclopropyl)-1H-pyrazol-4-yl]-7-[3-fluoro-1-(4-methoxyoxolan-3-yl)piperidin-4-yl]-6-methylquinazolin-2-amine]	>9.20
Cn1nc(C(C)(C)C)cc1Nc1ncc2cc(Cl)c([C@@H]3CCN([C@]4(C)COC[C@@H]4O)C[C@H]3F)cc2n1 (single isomer, unassigned) [Ex-4.245, (3S,4S)(3S,4S) or (3S,4S)(3R,4R) or (3R,4R)(3S,4S) or (3R,4R)(3R,4R) 4-(4-{2-[(3-tert-butyl-1-methyl-1H-pyrazol-5-yl)amino]-6-chloroquinazolin-7-yl}-3-fluoropiperidin-1-yl)-4-methyloxolan-3-ol]	>9.20
CO[C@@H]1COC[C@@H]1N1CC[C@@H](c2cc3nc(Nc4cnn(C5CC5(F)F)c4Cl)ncc3cc2C)[C@H](F)C1 (single isomer, unassigned) [Ex-4.246, (R)(3S,4S)(3S,4S) or (R)(3S,4S)(3R,4R) or (R)(3R,4R)(3S,4S) or (R)(3R,4R)(3R,4R) or (S)(3S,4S)(3S,4S) or (S)(3S,4S)(3R,4R) or (S)(3R,4R)(3S,4S) or (S)(3R,4R)(3R,4R) N-[5-chloro-1-(2,2-difluorocyclopropyl)-1H-pyrazol-4-yl]-7-[3-fluoro-1-(4-methoxyoxolan-3-yl)piperidin-4-yl]-6-methylquinazolin-2-amine]	8.22
C[C@]1(N2CC[C@@H](c3cc4nc(Nc5cnn(C6CC6)c5Cl)ncc4cc3Cl)[C@H](F)C2)COC[C@H]1O (single isomer, unassigned) [Ex-4.247, (3S,4S)(3S,4S) or (3S,4S)(3R,4R) or (3R,4R)(3S,4S) or (3R,4R)(3R,4R) 4-(4-{6-chloro-2-[(5-chloro-1-cyclopropyl-1H-pyrazol-4-yl)amino]quinazolin-7-yl}-3-fluoropiperidin-1-yl)-4-methyloxolan-3-ol]	>9.20
CO[C@H]1COC[C@H]1N1CC[C@@H](c2cc3nc(Nc4cnn(C5CC5)c4Cl)ncc3cc2C)[C@H](F)C1 (single isomer, unassigned) [Ex-4.248, (3S,4S)(3S,4S) or (3S,4S)(3R,4R) or (3R,4R)(3S,4S) or (3R,4R)(3R,4R)N-(5-chloro-1-cyclopropyl-1H-pyrazol-4-yl)-7-[3-fluoro-1-(4-methoxyoxolan-3-yl)piperidin-4-yl]-6-methylquinazolin-2-amine]	>9.20
C[C@@]1(N2CC[C@@H](c3cc4nc(Nc5cnn(C6CC6)c5Cl)ncc4cc3Cl)[C@H](F)C2)COC[C@@H]1O (single isomer, unassigned) [Ex-4.249, (3S,4S)(3S,4S) or (3S,4S)(3R,4R) or (3R,4R)(3S,4S) or (3R,4R)(3R,4R) 4-(4-{6-chloro-2-[(5-chloro-1-cyclopropyl-1H-pyrazol-4-yl)amino]quinazolin-7-yl}-3-fluoropiperidin-1-yl)-4-methyloxolan-3-ol]	>9.20
CO[C@H]1COC[C@H]1N1CC[C@@H](c2cc3nc(Nc4cnn(C5CC5)c4Cl)ncc3cc2C)[C@H](F)C1 (single isomer, unassigned) [Ex-4.250, (3S,4S)(3S,4S) or (3S,4S)(3R,4R) or (3R,4R)(3S,4S) or (3R,4R)(3R,4R) N-(5-chloro-1-cyclopropyl-1H-pyrazol-4-yl)-7-[3-fluoro-1-(4-methoxyoxolan-3-yl)piperidin-4-yl]-6-methylquinazolin-2-amine]	8.22
Cn1nc(C(F)(F)F)cc1Nc1ncc2cc(Cl)c([C@@H]3CCN([C@]4(C)COC[C@@H]4O)C[C@H]3F)cc2n1 (single isomer, unassigned) [Ex-4.251, (3S,4S)(3S,4S) or (3S,4S)(3R,4R) or (3R,4R)(3S,4S) or (3R,4R)(3R,4R) 4-[4-(6-chloro-2-{[1-methyl-3-(trifluoromethyl)-1H-pyrazol-5-yl]amino}quinazolin-7-yl)-3-fluoropiperidin-1-yl]-4-methyloxolan-3-ol]	9.05
Cn1nc(C(F)(F)F)cc1Nc1ncc2cc(Cl)c([C@@H]3CCN([C@@]4(C)COC[C@H]4O)C[C@H]3F)cc2n1 (single isomer, unassigned) [Ex-4.252, (3S,4S)(3S,4S) or (3S,4S)(3R,4R) or (3R,4R)(3S,4S) or (3R,4R)(3R,4R) 4-[4-(6-chloro-2-{[1-methyl-3-(trifluoromethyl)-1H-pyrazol-5-yl]amino}quinazolin-7-yl)-3-fluoropiperidin-1-yl]-4-methyloxolan-3-ol]	6.61
Cn1ncc(Nc2ncc3cc(Cl)c([C@@H]4CCN([C@@]5(C)COC[C@H]5O)C[C@H]4F)cc3n2)c1C(F)(F)F (single isomer, unassigned) [Ex-4.253, (3S,4S)(3S,4S) or (3S,4S)(3R,4R) or (3R,4R)(3S,4S) or (3R,4R)(3R,4R) 4-[4-(6-chloro-2-{[1-methyl-5-(trifluoromethyl)-1H-pyrazol-4-yl]amino}quinazolin-7-yl)-3-fluoropiperidin-1-yl]-4-methyloxolan-3-ol]	>9.20
Cn1ncc(Nc2ncc3cc(Cl)c([C@@H]4CCN([C@]5(C)COC[C@@H]5O)C[C@H]4F)cc3n2)c1C(F)(F)F (single isomer, unassigned) [Ex-4.254, (3S,4S)(3S,4S) or (3S,4S)(3R,4R) or (3R,4R)(3S,4S) or (3R,4R)(3R,4R) 4-[4-(6-chloro-2-{[1-methyl-5-(trifluoromethyl)-1H-pyrazol-4-yl]amino}quinazolin-7-yl)-3-fluoropiperidin-1-yl]-4-methyloxolan-3-ol]	>9.20
Cc1c(Nc2ncc3cc(Cl)c([C@@H]4CCN([C@@H]5COC[C@@H]5O)C[C@H]4F)cc3n2)cnn1C (single isomer, unassigned) [Ex-4.255, (3S,4S)(3S,4S) or (3S,4S)(3R,4R) or (3R,4R)(3S,4S) or (3R,4R)(3R,4R) 4-(4-(6-chloro-2-((1,5-dimethyl-1H-pyrazol-4-yl)amino)quinazolin-7-yl)-3-fluoropiperidin-1-yl)tetrahydrofuran-3-ol]	>9.20
Cc1c(Nc2ncc3cc(Cl)c([C@@H]4CCN([C@H]5COC[C@H]5O)C[C@H]4F)cc3n2)cnn1C (single isomer, unassigned) [Ex-4.256, (3S,4S)(3S,4S) or (3S,4S)(3R,4R) or (3R,4R)(3S,4S) or (3R,4R)(3R,4R) 4-(4-(6-chloro-2-((1,5-dimethyl-1H-pyrazol-4-yl)amino)quinazolin-7-yl)-3-fluoropiperidin-1-yl)tetrahydrofuran-3-ol]	>9.20
Cc1cc2cnc(Nc3cnn(C)c3C)nc2cc1[C@@H]1CCN([C@@H]2COC[C@@H]2O)C[C@H]1F (single isomer, unassigned) [Ex-4.257, (3S,4S)(3S,4S) or (3S,4S)(3R,4R) or (3R,4R)(3S,4S) or (3R,4R)(3R,4R) 4-(4-(2-((1,5-dimethyl-1H-pyrazol-4-yl)amino)-6-methylquinazolin-7-yl)-3-fluoropiperidin-1-yl)tetrahydrofuran-3-ol]	>9.20
Cc1cc2cnc(Nc3cnn(C)c3C)nc2cc1[C@@H]1CCN([C@H]2COC[C@H]2O)C[C@H]1F (single isomer, unassigned) [Ex-4.258, (3S,4S)(3S,4S) or (3S,4S)(3R,4R) or (3R,4R)(3S,4S) or (3R,4R)(3R,4R) 4-(4-(2-((1,5-dimethyl-1H-pyrazol-4-yl)amino)-6-methylquinazolin-7-yl)-3-fluoropiperidin-1-yl)tetrahydrofuran-3-ol]	7.39
Cc1cc2cnc(Nc3cnn(C)c3Cl)nc2cc1[C@@H]1CCN([C@@H]2COC[C@@H]2O)C[C@H]1F (single isomer, unassigned) [Ex-4.259, (3S,4S)(3S,4S) or (3S,4S)(3R,4R) or (3R,4R)(3S,4S) or (3R,4R)(3R,4R) 4-(4-(2-((5-chloro-1-methyl-1H-pyrazol-4-yl)amino)-6-methylquinazolin-7-yl)-3-fluoropiperidin-1-yl)tetrahydrofuran-3-ol]	>9.20
Cc1cc2cnc(Nc3cnn(C)c3Cl)nc2cc1[C@@H]1CCN([C@H]2COC[C@H]2O)C[C@H]1F (single isomer, unassigned) [Ex-4.260, (3S,4S)(3S,4S) or (3S,4S)(3R,4R) or (3R,4R)(3S,4S) or (3R,4R)(3R,4R) 4-(4-(2-((5-chloro-1-methyl-1H-pyrazol-4-yl)amino)-6-methylquinazolin-7-yl)-3-fluoropiperidin-1-yl)tetrahydrofuran-3-ol]	8.00
CO[C@H]1COC[C@H]1N1CC[C@@H](c2cc3nc(Nc4cnn(C5CC5)c4Cl)ncc3cc2C)[C@H](F)C1 (single isomer, unassigned) [Ex-4.261, (3S,4S)(3S,4S) or (3S,4S)(3R,4R) or (3R,4R)(3S,4S) or (3R,4R)(3R,4R) N-(5-chloro-1-cyclopropyl-1H-pyrazol-4-yl)-7-[3-fluoro-1-(4-methoxyoxolan-3-yl)piperidin-4-yl]-6-methylquinazolin-2-amine]	7.51
